This is an account of results in US10744128B2, “6-(5-membered heteroaryl)isoquinolin-3-yl-(5-membered heteroaryl) carboxamides and preparation and use thereof” (Samumed, LLC, priority 2017, dated 2020).

Experiment [1] relates to Wnt-responsive promoter (Sp5-Luc reporter) in SW480 colon carcinoma cells. The experiment can be described thus: Sp5-Luc reporter gene screening assay for Wnt activity in SW480 cells. Type of experiment: cell-based, human. To be noted: 36 to 48 hours, luminescence. The text has this:
The screening assay for Wnt activity is described as follows. Reporter cell lines can be generated by stably transducing cancer cell lines (e.g., colon cancer) or primary cells (e.g., IEC-6 intestinal cells) with a lentiviral construct that includes a Wnt-responsive promoter driving expression of the firefly luciferase gene.
SW480 colon carcinoma cells were transduced with a lentiviral vector expressing luciferase with a human Sp5 promoter consisting of a sequence of eight TCF/LEF binding sites. SW480 cells stably expressing the Sp5-Luc reporter gene and a hygromycin resistance gene were selected by treatment with 150 μg/mL of hygromycin for 7 days. These stably transduced SW480 cells were expanded in cell culture and used for all further screening activities. […] For Sp5-Luc reporter gene assays, the cells were plated at 4,000 cells/well in 384-well plates with a DMEM medium containing 1% fetal bovine serum, and 1% Penicillin-Streptomycin and incubated for 36 to 48 hours at 37° C. and 5% CO2. Following incubation, 15 μl of BriteLite Plus luminescence reagent (Perkin Elmer) was added to each well of the 384-well assay plates. The plates were placed on an orbital shaker for 2 min and then luminescence was quantified using the Envision (Perkin Elmer) plate reader. Readings were normalized to DMSO only treated cells, and normalized activities were utilized for EC50 calculations using the dose-response log (inhibitor) vs. response −variable slope (four parameters) nonlinear regression feature available in GraphPad Prism 5.0 (or Dotmatics).
(In general: A reporter such as luciferase makes a cellular process visible.)

A further experiment addresses recombinant GSK3β kinase (Homo sapiens (Human), UniProt P49841). The experiment can be described thus: GSK3β kinase assay (Ser/Thr 09 peptide Z-lyte, FRET). Type of experiment: biochemical. To be noted: GSK3β kinase, 46 μM ATP, one hour; method calls values IC50.
The subject of experiment [2] is SW480 colon carcinoma cells. The experiment can be described thus: Cell viability assay (CellTiter-Glo) in SW480 cells. Type of experiment: cell-based, human. To be noted: four days. As for the experimental part:
SW480 colon carcinoma cells were transduced with a lentiviral vector expressing luciferase with a human Sp5 promoter consisting of a sequence of eight TCF/LEF binding sites. SW480 cells stably expressing the Sp5-Luc reporter gene and a hygromycin resistance gene were selected by treatment with 150 µg/mL of hygromycin for 7 days. These stably transduced SW480 cells were expanded in cell culture and used for all further screening activities.
For the Cell Viability Assays, the cells were plated at 2,000 cells/well in 384-well plates with a DMEM medium containing 1% fetal bovine serum, and 1% Penicillin-Streptomycin and incubated for […] at 37° C. and 5% CO2. Eight replicates of DMSO-treated cells served as controls and cells treated with compound were performed in duplicate.
After incubation, 10 μL of CellTiter-Glo (Promega) was added to each well allowed to incubate for approximately 12 minutes. This reagent “results in cell lysis and generation of a luminescent signal proportional to the amount of ATP present. The amount of ATP is directly proportional to the number of cells present in culture, in agreement with previous reports. The CellTiter-Glo® Assay generates a “glow-type” luminescent signal, produced by the luciferase reaction (Promega.com)”.

Experiment [3] has as its system primary human fibroblasts derived from IPF patients (LL29 cells), α-smooth muscle actin. The experiment can be described thus: Inhibition of fibrotic process: αSMA in TGF-β1 treated LL29 fibroblasts. Type of experiment: cell-based. To be noted: for pEC50: LL29 cells, TGF-β1 20 ng/mL, 4 days, % cells positive for αSMA. The protocol:
Representative compounds were screened using primary human fibroblasts (derived from IPF patients) treated with TGF-β1 to determine their ability to inhibit the fibrotic process.
LL29 cells were plated at 1,500 cells/well in 70 μL/well F12 medium supplemented with 1% Fetal Bovine Serum. […] Wells treated with TGF-β1 and containing DMSO were used as positive control, and cells with only DMSO were negative control. […] Following incubation for 4 days, SYTOX green nucleic acid stain (Life Technologies [Thermo Fisher Scientific]) was added to the wells at a final concentration of 1 μM and incubated at room temperature for 30 min.

A further experiment concerns IL-6. The experiment is described as follows: IL-6 inhibition in LPS-stimulated human peripheral blood mononuclear cells (HTRF). Type of experiment: cell-based. To be noted: for pEC50: huPBMCs, LPS 50 ng/mL, 22 hours, IL-6 HTRF; for inhibition at 10 µM: read-out: percent inhibition at 10 μM. The protocol:
Fresh Normal PB MNC (Catalog # PB001, AllCells, Alameda, Calif.) were shipped overnight at 4° C. and resuspended in Roswell Park Memorial Institute (RPMI) 1640 Medium, with GlutaMAX Supplement (Catalog #61870127, ThermoFisher Scientific, Waltham, Mass.) supplemented with 1% Penicillin-Streptomycin (Catalog #15140163, ThermoFisher Scientific, Waltham, Mass.) and 1% fetal bovine serum (FBS) (Catalog #16140089, ThermoFisher Scientific, Waltham, Mass.) assay media.
Fresh normal human peripheral blood mononuclear cells (huPBMCs) were resuspended in 1% FBS-RPMI assay media with 1% Penicillin-Streptomycin 1% to a cell concentration of 1×10e6 cells/mL. […] 50 ng/mL of Lipopolysaccharides from Escherichia coli 0111:B4 (Catalog #L5293-2ML, Sigma-Aldrich, St. Louis, Mo.) was added after 2 hours and cells were incubated for another 22 hours at 37° C.-5% CO2. After 22 hour incubation, a mixture of anti-IL6 XL665 and anti-IL-6 Cryptate diluted in reconstitution buffer (Catalog #62IL6PEC, Cisbio Inc., Bedford, Mass.) was added to each well. Following incubation for 3 hours at room temperature, Homogeneous Time-Resolved Fluorescence (HTRF) was measured using the Envision (Perkin Elmer, Shelton, Conn.) at 665 nm and […]. The ratio of fluorescence at 665 nm to 620 nm was used as a readout for IL-6 quantification. All samples were processed in duplicate. Readings were normalized to DMSO treated cells and normalized activities were utilized for EC50 calculations. EC50 was determined using software generated by Dotmatics Limited (Windhill Bishops Stortford Herts, UK) using the Levenberg-Marquardt 4 parameter fitting procedure with finite different gradients.

Experiment [4] deals with recombinant DYRK1A kinase (Homo sapiens (Human), UniProt Q13627). The experiment is described as follows: DYRK1A kinase assay (Ser/Thr 18 peptide Z-lyte, FRET). To be noted: DYRK1A kinase, 30 μM ATP, one hour; method calls values IC50.

As a reminder, the pEC50 is −log10 of the EC50, conventionally taken in molar units. One may read the inhibition as how much of the control response was suppressed.

pEC50: −log10 of the molar value.

recombinant GSK3β kinase, sequence (P49841 whole entry): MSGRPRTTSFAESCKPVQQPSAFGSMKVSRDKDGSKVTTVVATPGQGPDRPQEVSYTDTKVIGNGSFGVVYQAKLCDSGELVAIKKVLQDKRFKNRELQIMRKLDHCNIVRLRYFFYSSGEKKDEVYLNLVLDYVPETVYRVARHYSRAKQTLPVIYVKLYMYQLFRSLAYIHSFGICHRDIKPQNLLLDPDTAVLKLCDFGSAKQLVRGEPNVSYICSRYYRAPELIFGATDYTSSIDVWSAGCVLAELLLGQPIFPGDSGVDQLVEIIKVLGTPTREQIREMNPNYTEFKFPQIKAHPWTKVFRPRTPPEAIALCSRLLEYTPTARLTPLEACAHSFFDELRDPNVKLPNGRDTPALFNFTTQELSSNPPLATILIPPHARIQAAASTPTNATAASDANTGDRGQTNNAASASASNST

On to `CN1CCC(c2nc(C(=O)Nc3cc4cc(-c5cnn(C)c5)ccc4cn3)co2)CC1` [Compound 20, N-(6-(1-Methyl-1H-pyrazol-4-yl)isoquinolin-3-yl)-2-(1-methylpiperidin-4-yl)oxazole-4-carboxamide], for which the pEC50 in experiment [1] (Homo sapiens) is 6.97; at recombinant GSK3β kinase it was 5.49; in experiment [2] (Homo sapiens, 96 h) it was 6.37; in experiment [3] (Homo sapiens, Fibroblast, 96 h) it was 5.70; in the experiment on IL-6 (Homo sapiens, PBMC) it was 5.43; in experiment [4] it was 7.82.
Consider `CCN1CCC(n2cc(C(=O)Nc3cc4cc(-c5cnn(C)c5)ccc4cn3)cn2)CC1` [Compound 6, 1-(1-Ethylpiperidin-4-yl)-N-(6-(1-methyl-1H-pyrazol-4-yl)isoquinolin-3-yl)-1H-pyrazole-4-carboxamide], for which the pEC50 in experiment [1] (Homo sapiens) is 7.82; at recombinant GSK3β kinase it was 5.77; in experiment [2] (Homo sapiens, 96 h) it was 7.49; in experiment [3] (Homo sapiens, Fibroblast, 96 h), 7.16; with IL-6 (Homo sapiens, PBMC), 6.89; in experiment [4], 8.52.
For `Cc1ncc(C(=O)Nc2cc3cc(-c4cncn4C)ccc3cn2)n1C` [Compound 51, 1,2-Dimethyl-N-(6-(1-methyl-1H-imidazol-5-yl)isoquinolin-3-yl)-1H-imidazole-5-carboxamide], the pEC50 is 6.33 in experiment [1] (Homo sapiens); 6.19 at recombinant GSK3β kinase; 6.07 in experiment [2] (Homo sapiens, 96 h); less than 5.00 in experiment [3] (Homo sapiens, Fibroblast, 96 h); less than 5.00 in the experiment with IL-6 (Homo sapiens, PBMC); 8.40 in experiment [4]. Moreover, the inhibition at 10 µM came to 6.5% in experiment [3] (Homo sapiens, Fibroblast, read-out: percent inhibition at 10 μM) and 10.9% in the experiment with IL-6 (Homo sapiens, PBMC).
`CC(C)N1CCC(c2nc(C(=O)Nc3cc4cc(-c5cnn(C)c5)ccc4cn3)co2)CC1` [Compound 22, 2-(1-Isopropylpiperidin-4-yl)-N-(6-(1-methyl-1H-pyrazol-4-yl)isoquinolin-3-yl)oxazole-4-carboxamide]: the pEC50 in experiment [1] (Homo sapiens) is 6.74; at recombinant GSK3β kinase, 5.59; in experiment [2] (Homo sapiens, 96 h) it was 6.11; in experiment [3] (Homo sapiens, Fibroblast, 96 h), 5.54; in the experiment on IL-6 (Homo sapiens, PBMC), less than 5.00; in experiment [4], 7.80. Moreover, the inhibition at 10 µM in the experiment with IL-6 (Homo sapiens, PBMC) came to 27.8%.
Consider `CC(C)N1CCC(n2cc(C(=O)Nc3cc4cc(-c5cn(C)nn5)ccc4cn3)cn2)CC1` [Compound 32, 1-(1-Isopropylpiperidin-4-yl)-N-(6-(1-methyl-1H-1,2,3-triazol-4-yl)isoquinolin-3-yl)-1H-pyrazole-4-carboxamide], for which the pEC50 in experiment [1] (Homo sapiens) is 7.48; at recombinant GSK3β kinase it was 6.46; in experiment [2] (Homo sapiens, 96 h), 7.36; in experiment [3] (Homo sapiens, Fibroblast, 96 h), 6.69; with IL-6 (Homo sapiens, PBMC), 6.36; in experiment [4] it was 8.52.
For the compound “N-(6-(1-(Methyl-d3)-1H-pyrazol-4-yl)isoquinolin-3-yl)-2-(1-methylpiperidin-4-yl)oxazole-4-carboxamide [Compound 17]”, the pEC50 in experiment [1] was 6.95; on recombinant GSK3β kinase, 5.53; in experiment [2], 6.89; in experiment [3] it was 6.76; in the experiment on IL-6, 5.21; in experiment [4], 7.80.
Take `CN1CCC(n2cc(C(=O)Nc3cc4cc(-c5cnn(C)c5)ccc4cn3)cn2)CC1` [Compound 4, N-(6-(1-Methyl-1H-pyrazol-4-yl)isoquinolin-3-yl)-1-(1-methylpiperidin-4-yl)-1H-pyrazole-4-carboxamide]: the negative-log EC50 (pEC50) is 7.85 in experiment [1] (Homo sapiens); 5.83 at recombinant GSK3β kinase; 7.46 in experiment [2] (Homo sapiens, 96 h); 7.03 in experiment [3] (Homo sapiens, Fibroblast, 96 h); 7.05 in the experiment with IL-6 (Homo sapiens, PBMC); 8.70 in experiment [4].
On to `Cc1coc(C(=O)Nc2cc3cc(-c4cncn4C)ccc3cn2)n1` [Compound 55, 4-Methyl-N-(6-(1-methyl-1H-imidazol-5-yl)isoquinolin-3-yl)oxazole-2-carboxamide], for which the pEC50 in experiment [1] (Homo sapiens) was 5.95; at recombinant GSK3β kinase it was 6.01; in experiment [2] (Homo sapiens, 96 h), 5.51; in experiment [3] (Homo sapiens, Fibroblast, 96 h), 5.42; in the experiment on IL-6 (Homo sapiens, PBMC), 5.02; in experiment [4], 8.15.
For the compound `CN1CCC(n2cc(C(=O)Nc3cc4cc(-c5cn(C)nn5)ccc4cn3)cn2)CC1` [Compound 30, N-(6-(1-Methyl-1H-1,2,3-triazol-4-yl)isoquinolin-3-yl)-1-(1-methylpiperidin-4-yl)-1H-pyrazole-4-carboxamide], the pEC50 was 7.85 in experiment [1] (Homo sapiens); 6.49 at recombinant GSK3β kinase; 7.49 in experiment [2] (Homo sapiens, 96 h); 7.08 in experiment [3] (Homo sapiens, Fibroblast, 96 h); 6.58 with IL-6 (Homo sapiens, PBMC); 8.52 in experiment [4].
Consider `CN(C)C1CN(c2nc(C(=O)Nc3cc4cc(-c5cnn(C)c5)ccc4cn3)co2)C1` [Compound 18, 2-(3-(Dimethylamino)azetidin-1-yl)-N-(6-(1-methyl-1H-pyrazol-4-yl)isoquinolin-3-yl)oxazole-4-carboxamide], for which the pEC50 in experiment [1] (Homo sapiens) is 5.98; on recombinant GSK3β kinase, 5.90; in experiment [2] (Homo sapiens, 96 h), 5.41; in experiment [3] (Homo sapiens, Fibroblast, 96 h), 6.32; in the experiment on IL-6 (Homo sapiens, PBMC) it was less than 5.00; in experiment [4], 7.82. For the same compound, the inhibition at 10 µM in the experiment with IL-6 (Homo sapiens, PBMC) was 9%.
Regarding `Cn1cc(-c2ccc3cnc(NC(=O)c4coc(C5CCN(CCF)CC5)n4)cc3c2)cn1` [Compound 21, 2-(1-(2-Fluoroethyl)piperidin-4-yl)-N-(6-(1-methyl-1H-pyrazol-4-yl)isoquinolin-3-yl)oxazole-4-carboxamide], the pEC50 was 5.88 at recombinant GSK3β kinase; 5.90 in experiment [2] (Homo sapiens, 96 h); 5.02 in experiment [3] (Homo sapiens, Fibroblast, 96 h); less than 5.00 with IL-6 (Homo sapiens, PBMC); 7.80 in experiment [4]. The inhibition at 10 µM in the experiment with IL-6 (Homo sapiens, PBMC) was determined as 27.2%.
For `Cn1cc(-c2ccc3cnc(NC(=O)c4cn(C5CCNCC5)nn4)cc3c2)cn1` [Compound 11, N-(6-(1-Methyl-1H-pyrazol-4-yl)isoquinolin-3-yl)-1-(piperidin-4-yl)-1H-1,2,3-triazole-4-carboxamide], the pEC50 was 5.00 at recombinant GSK3β kinase; 6.56 in experiment [2] (Homo sapiens, 96 h); 6.22 in experiment [3] (Homo sapiens, Fibroblast, 96 h); 5.58 with IL-6 (Homo sapiens, PBMC); 8.15 in experiment [4].
